Source: ChEMBL document CHEMBL3352739, “Comparative in vivo evaluation of polyalkoxy substituted 4H-chromenes and oxa-podophyllotoxins as microtubule destabilizing agents in the phenotypic sea urchin embryo assay” (2014)

Experiments:
[1] = tested on: Paracentrotus lividus; assay: Antimitotic microtubule destabilizing activity in Paracentrotus lividus L embryos assessed as induction of cleavage alteration
[2] = Cytotoxicity against human NCI60 cells assessed as mean cell growth at 10 uM; type: functional
[3] = tested on: Paracentrotus lividus; assay: Antimitotic microtubule destabilizing activity in Paracentrotus lividus L embryos assessed as induction of cleavage arrest
[4] = tested on: Paracentrotus lividus; assay: Antimitotic microtubule destabilizing activity in Paracentrotus lividus L embryos assessed as induction of embryo spinning
[5] = Cytotoxicity against human NCI60 cells; type: functional
[6] = tested on: SK-OV-3; assay: Growth inhibition of human SKOV3 cells after 48 hrs by sulforhodamine B assay; type: functional; conditions: SK-OV-3, 48 h
[7] = tested on: SNB-75; assay: Growth inhibition of human SNB75 cells after 48 hrs by sulforhodamine B assay; type: functional; conditions: SNB-75, 48 h
[8] = tested on: HT-29; assay: Growth inhibition of human HT-29 cells after 48 hrs by sulforhodamine B assay; type: functional; conditions: HT-29, 48 h
[9] = Growth inhibition of human OVCAR8 cells after 48 hrs by sulforhodamine B assay; type: functional; conditions: OVCAR-8, 48 h
[10] = tested on: CCRF-CEM; assay: Growth inhibition of human CCRF-CEM cells after 48 hrs by sulforhodamine B assay; type: functional
[11] = Growth inhibition of human HCT15 cells after 48 hrs by sulforhodamine B assay; type: functional; conditions: HCT-15, 48 h
[12] = tested on: NCI-H226; assay: Growth inhibition of human NCI-H226 cells after 48 hrs by sulforhodamine B assay; type: functional; conditions: NCI-H226, 48 h
[13] = tested on: SR; assay: Growth inhibition of human SR cells after 48 hrs by sulforhodamine B assay; type: functional
[14] = tested on: SN12C; assay: Growth inhibition of human SN12C cells after 48 hrs by sulforhodamine B assay; type: functional
[15] = tested on: HOP-62; assay: Growth inhibition of human HOP62 cells after 48 hrs by sulforhodamine B assay; type: functional; conditions: HOP-62, 48 h
[16] = tested on: ACHN; assay: Growth inhibition of human ACHN cells after 48 hrs by sulforhodamine B assay; type: functional
[17] = Growth inhibition of human SF539 cells after 48 hrs by sulforhodamine B assay; type: functional; conditions: SF-539, 48 h
[18] = tested on: TK-10; assay: Growth inhibition of human TK10 cells after 48 hrs by sulforhodamine B assay; type: functional; conditions: TK-10, 48 h
[19] = Growth inhibition of human OVCAR4 cells after 48 hrs by sulforhodamine B assay; type: functional; conditions: OVCAR-4, 48 h
[20] = Growth inhibition of human NCI-ADR-RES cells after 48 hrs by sulforhodamine B assay; type: functional
[21] = tested on: MDA-MB-435; assay: Growth inhibition of human MDA-MB-435 cells after 48 hrs by sulforhodamine B assay; type: functional; conditions: MDA-MB-435, 48 h
[22] = Growth inhibition of human Hs 578T cells after 48 hrs by sulforhodamine B assay; type: functional
[23] = Growth inhibition of human HCT116 cells after 48 hrs by sulforhodamine B assay; type: functional; conditions: HCT-116, 48 h
[24] = tested on: NCI-H23; assay: Growth inhibition of human NCI-H23 cells after 48 hrs by sulforhodamine B assay; type: functional; conditions: NCI-H23, 48 h
[25] = tested on: 786-0; assay: Growth inhibition of human 786-0 cells after 48 hrs by sulforhodamine B assay; type: functional; conditions: 786-0, 48 h
[26] = tested on: T47D; assay: Growth inhibition of human T47D cells after 48 hrs by sulforhodamine B assay; type: functional
[27] = Growth inhibition of human COLO205 cells after 48 hrs by sulforhodamine B assay; type: functional; conditions: COLO 205, 48 h
[28] = tested on: K562; assay: Growth inhibition of human K562 cells after 48 hrs by sulforhodamine B assay; type: functional; conditions: K562, 48 h
[29] = Growth inhibition of human UACC62 cells after 48 hrs by sulforhodamine B assay; type: functional; conditions: UACC-62, 48 h
[30] = Growth inhibition of human BT549 cells after 48 hrs by sulforhodamine B assay; type: functional; conditions: BT-549, 48 h
[31] = tested on: SF-268; assay: Growth inhibition of human SF268 cells after 48 hrs by sulforhodamine B assay; type: functional; conditions: SF-268, 48 h
[32] = tested on: SW-620; assay: Growth inhibition of human SW620 cells after 48 hrs by sulforhodamine B assay; type: functional; conditions: SW-620, 48 h
[33] = Growth inhibition of human UACC257 cells after 48 hrs by sulforhodamine B assay; type: functional; conditions: UACC-257, 48 h
[34] = tested on: NCI-H322M; assay: Growth inhibition of human NCI-H322M cells after 48 hrs by sulforhodamine B assay; type: functional
[35] = Growth inhibition of human OVCAR5 cells after 48 hrs by sulforhodamine B assay; type: functional; conditions: OVCAR-5, 48 h
[36] = tested on: KM12; assay: Growth inhibition of human KM12 cells after 48 hrs by sulforhodamine B assay; type: functional; conditions: KM12, 48 h
[37] = Growth inhibition of human UO31 cells after 48 hrs by sulforhodamine B assay; type: functional; conditions: UO-31, 48 h
[38] = Growth inhibition of human RPMI8226 cells after 48 hrs by sulforhodamine B assay; type: functional; conditions: RPMI-8226, 48 h
[39] = tested on: NCI-H460; assay: Growth inhibition of human NCI-H460 cells after 48 hrs by sulforhodamine B assay; type: functional; conditions: NCI-H460, 48 h
[40] = Growth inhibition of human OVCAR3 cells after 48 hrs by sulforhodamine B assay; type: functional; conditions: OVCAR-3, 48 h
[41] = tested on: SNB-19; assay: Growth inhibition of human SNB19 cells after 48 hrs by sulforhodamine B assay; type: functional; conditions: SNB-19, 48 h
[42] = tested on: A498; assay: Growth inhibition of human A498 cells after 48 hrs by sulforhodamine B assay; type: functional; conditions: A498, 48 h
[43] = tested on: MDA-MB-231; assay: Growth inhibition of human MDA-MB-231 cells after 48 hrs by sulforhodamine B assay; type: functional; conditions: MDA-MB-231, 48 h
[44] = tested on: SK-MEL-5; assay: Growth inhibition of human SK-MEL-5 cells after 48 hrs by sulforhodamine B assay; type: functional; conditions: SK-MEL-5, 48 h
[45] = Growth inhibition of human H1299 cells after 48 hrs by sulforhodamine B assay; type: functional; conditions: NCI-H1299, 48 h
[46] = Growth inhibition of human PC3 cells after 48 hrs by sulforhodamine B assay; type: functional; conditions: PC-3, 48 h
[47] = Growth inhibition of human SF295 cells after 48 hrs by sulforhodamine B assay; type: functional; conditions: SF-295, 48 h
[48] = tested on: NCI-H522; assay: Growth inhibition of human NCI-H522 cells after 48 hrs by sulforhodamine B assay; type: functional; conditions: NCI-H522, 48 h
[49] = tested on: IGROV-1; assay: Growth inhibition of human IGROV1 cells after 48 hrs by sulforhodamine B assay; type: functional; conditions: IGROV-1, 48 h
[50] = tested on: M14; assay: Growth inhibition of human M14 cells after 48 hrs by sulforhodamine B assay; type: functional; conditions: M14, 48 h
[51] = tested on: CAKI-1; assay: Growth inhibition of human CAKI-1 cells after 48 hrs by sulforhodamine B assay; type: functional; conditions: CAKI-1, 48 h
[52] = tested on: MDA-MB-468; assay: Growth inhibition of human MDA-MB-468 cells after 48 hrs by sulforhodamine B assay; type: functional; conditions: MDA-MB-468, 48 h
[53] = tested on: DU-145; assay: Growth inhibition of human DU145 cells after 48 hrs by sulforhodamine B assay; type: functional; conditions: DU-145, 48 h
[54] = tested on: A549; assay: Growth inhibition of human A549/ATCC cells after 48 hrs by sulforhodamine B assay; type: functional; conditions: A549, 48 h
[55] = Growth inhibition of human MOLT4 cells after 48 hrs by sulforhodamine B assay; type: functional; conditions: MOLT-4, 48 h
[56] = tested on: HL-60(TB); assay: Growth inhibition of human HL-60(TB) cells after 48 hrs by sulforhodamine B assay; type: functional; conditions: HL-60, 48 h
[57] = tested on: MCF7; assay: Growth inhibition of human MCF7 cells after 48 hrs by sulforhodamine B assay; type: functional; conditions: MCF7, 48 h
[58] = Growth inhibition of human RXF393 cells after 48 hrs by sulforhodamine B assay; type: functional; conditions: RXF 393, 48 h
[59] = Growth inhibition of human HCC2998 cells after 48 hrs by sulforhodamine B assay; type: functional; conditions: HCC 2998, 48 h

COc1ccc(C2C(C#N)=C(N)Oc3cc(O)ccc32)cc1OC (centres undefined)
EC [1]: > 4 µM
Activity [2]: 99.4%
EC [3]: > 4 µM
EC [4]: > 4 µM

COc1cc(C2C(C#N)=C(N)Oc3cc(O)ccc32)cc2c1OCO2 (centres undefined)
EC [1]: 0.5 µM
EC [3]: 4 µM
EC [4]: 10 µM

COc1ccc2c(c1)OC(N)=C(C#N)[C@H]2c1cc(OC)c(OC)c(OC)c1
EC [1]: 2 µM
EC [3]: > 4 µM
EC [4]: > 5 µM

COc1ccc(C2C(C#N)=C(N)Oc3cc(O)ccc32)c(OC)c1OC (centres undefined)
EC [1]: > 4 µM
EC [3]: > 4 µM
EC [4]: > 4 µM

COc1ccc2c(c1)OC(N)=C(C#N)C2c1cc(OC)c2c(c1OC)OCO2 (centres undefined)
EC [1]: 0.1 µM
EC [3]: 1 µM
EC [4]: 4 µM

N#CC1=C(N)Oc2cc(O)ccc2C1c1ccccc1I (centres undefined)
EC [1]: 4 µM
EC [3]: > 4 µM
EC [4]: > 4 µM

N#CC1=C(N)Oc2cc(O)ccc2C1c1cc2c(c([N+](=O)[O-])c1)OCCO2 (centres undefined)
EC [1]: 4 µM
GI50 [5]: 99300 nM
EC [3]: > 4 µM
EC [4]: > 4 µM

COc1ccc2c(c1)OC(N)=C(C#N)C2c1cc(OC)c2c(c1)OCO2 (centres undefined)
EC [1]: 0.005 µM
EC [3]: 0.02 µM
EC [4]: 0.05 µM

COc1ccc(OC)c(C2C(C#N)=C(N)Oc3cc(O)ccc32)c1 (centres undefined)
EC [1]: 1 µM
Activity [2]: 94.5%
EC [3]: > 4 µM
EC [4]: > 4 µM

COc1ccc(C2C(C#N)=C(N)Oc3cc(O)ccc32)c(OC)c1 (centres undefined)
EC [1]: > 4 µM
EC [3]: > 4 µM
EC [4]: > 4 µM

COc1ccc2c(c1)OC(N)=C(C#N)C2c1cc2c(c([N+](=O)[O-])c1)OCCO2 (centres undefined)
EC [1]: 0.02 µM
EC [3]: 0.1 µM
EC [4]: 1 µM

COc1c(C2C(C#N)=C(N)Oc3cc(O)ccc32)cc2c(c1OC)OCO2 (centres undefined)
EC [1]: 4 µM
EC [3]: > 4 µM
EC [4]: > 4 µM

COc1cccc([C@H]2C(C#N)=C(N)Oc3cc(OC)ccc32)c1
EC [1]: 0.001 µM
EC [3]: 0.01 µM
EC [4]: 0.05 µM

COc1ccc2c(c1)OC(N)=C(C#N)C2c1cc(N)c2c(c1)OCCO2 (centres undefined)
EC [1]: 0.1 µM
EC [3]: 0.5 µM
EC [4]: 5 µM

COc1cccc(C2C(C#N)=C(N)Oc3cc(OC)ccc32)c1 (centres undefined)
GI50 [6]: 34 nM
GI50 [7]: 27 nM
GI50 [8]: 37 nM
GI50 [9]: 51.4 nM
EC [1]: 0.002 µM
GI50 [10]: 31.2 nM
GI50 [11]: 36.6 nM
GI50 [12]: 835 nM
GI50 [13]: 20.2 nM
GI50 [14]: 69.3 nM
GI50 [15]: 41.6 nM
GI50 [16]: 120 nM
GI50 [5]: 55 nM
GI50 [17]: 25 nM
GI50 [18]: 11800 nM
GI50 [19]: 535 nM
GI50 [20]: 14.9 nM
GI50 [21]: < 10 nM
GI50 [22]: 28.3 nM
GI50 [23]: 47.9 nM
GI50 [24]: 40 nM
GI50 [25]: 50.7 nM
GI50 [26]: 43.7 nM
GI50 [27]: 45.2 nM
GI50 [28]: 19.7 nM
GI50 [29]: 70.5 nM
EC [3]: 0.01 µM
GI50 [30]: 87.2 nM
GI50 [31]: 73.5 nM
GI50 [32]: 38.1 nM
GI50 [33]: 12400 nM
GI50 [34]: 63.1 nM
GI50 [35]: 66.2 nM
GI50 [36]: 30.3 nM
GI50 [37]: 57.2 nM
GI50 [38]: 37.4 nM
GI50 [39]: 36.4 nM
GI50 [40]: 27.8 nM
GI50 [41]: 3770 nM
GI50 [42]: 18.6 nM
GI50 [43]: 54.6 nM
GI50 [44]: 50.3 nM
GI50 [45]: 55 nM
GI50 [46]: 35.7 nM
GI50 [47]: 25.4 nM
GI50 [48]: < 10 nM
EC [4]: 0.05 µM
GI50 [49]: 48.2 nM
GI50 [50]: 26.8 nM
GI50 [51]: 42.6 nM
GI50 [52]: 35 nM
GI50 [53]: 35.1 nM
GI50 [54]: 45.2 nM
GI50 [55]: 55.7 nM
GI50 [56]: 25 nM
GI50 [57]: 17.1 nM
GI50 [58]: 26 nM
GI50 [59]: 51.5 nM

COc1cc(C2C(C#N)=C(N)Oc3cc(O)ccc32)c(OC)c(OC)c1OC (centres undefined)
EC [1]: > 4 µM
EC [3]: > 4 µM
EC [4]: > 4 µM

COc1ccccc1C1C(C#N)=C(N)Oc2cc(O)ccc21 (centres undefined)
EC [1]: 0.5 µM
EC [3]: > 4 µM
EC [4]: > 5 µM
